The values below come from ChEMBL document CHEMBL5053548, “Subphthalocyanines as Efficient Photosensitizers with Nanomolar Photodynamic Activity against Cancer Cells” (J Med Chem, 2021).

Activity calls are given as the source filed them. No cut-off for these calls is given here.

Series [1] in a line: Absorption maximum of the compound in MeOH. The class given is physicochemical.
The nature of series [2]: Induction of singlet oxygen generation in MeOH assessed as singlet oxygen quantum yield. Type of series: functional.
Series [3] can be described thus: Fluorescence property of compound in MeOH assessed as quantum yield. Type of series: physicochemical.
The nature of series [4]: Fluorescence property of compound in MeOH assessed as life time. Type of series: physicochemical.
Series [5] in a line: Emission maximum of the compound in THF. Type of series: physicochemical.
Series [6] deals with HeLa. As to the kind of experiment: Potency index, ratio of PpXI EC50 to test compound EC50 for phototoxicity against human HeLa cells. The class given is functional.
A short description of series [7]: Phototoxicity against human SK-MEL-28 cells assessed as reduction in cell viability preincubated for 12 hrs followed by 15 mins of light irradiation and measured after 24 hrs by neutral red uptake assay. The class given is functional, cell-based. The note with it: SK-MEL-28, light or radiation study.
Series [8] is described as follows: Fluorescence property of compound in THF assessed as quantum yield. Type of series: physicochemical.
Series [9] can be described thus: Dark toxicity against human HeLa cells assessed as reduction in cell viability incubated for 24 hrs by neutral red uptake assay. The class given is cell-based. As to conditions: read-out: TC50.
Series [10] is described as follows: n-Octanol/PBS partition coefficient, logP of the compound at pH 7.4 at 100 uM after 5 mins. The class given is physicochemical.
Series [11] in a line: Selectivity index, ratio of TC50 for human SK-MEL-28 cells to EC50 for human SK-MEL-28 cells.
A further series concerns SK-MEL-28. As to the kind of experiment: Induction of apoptosis in human SK-MEL-28 cells at EC50 concentration preincubated for 12 hrs followed by 15 mins light irradiation and measured every 15 mins for 48 hrs by real time-glo Annexin V assay. The class given is functional, cell-based. The note with it: time 3615.0 min.
The nature of series [12]: Absorption maximum of the compound in EtOH. Type of series: physicochemical.
The nature of series [13]: Absorption maximum of the compound in THF. The class given is physicochemical.
A short description of series [14]: Dark toxicity against human SK-MEL-28 cells assessed as reduction in cell viability incubated for 24 hrs by neutral red uptake assay. Type of series: cell-based. As to conditions: read-out: TC50.
The nature of series [15]: Drug uptake in human SK-MEL-28 cells assessed per mg protein measured upto 12 hrs by spectrofluorometric method. The class given is ADME, cell-based. The note with it: sk-mel-28, 12 h.
Series [16] can be described thus: Drug uptake in human HeLa cells assessed per mg protein measured upto 12 hrs by spectrofluorometric method. The class given is ADME, cell-based.
The subject of series [17] is HeLa. As to the kind of experiment: Potency index, ratio of S3AlOHPc EC50 to test compound EC50 for phototoxicity against human HeLa cells. Type of series: functional.
Series [18] is described as follows: Induction of singlet oxygen generation in THF assessed as singlet oxygen quantum yield. Type of series: functional.
A short description of series [19]: Selectivity index, ratio of TC50 for human HeLa cells to EC50 for human HeLa cells.
The nature of series [20]: Drug localization in endo-lysosome of human HeLa cells at 1 uM after 12 hrs by confocal microscopy analysis. Type of series: ADME, subcellular.
The nature of series [21]: Drug localization in endo-lysosome of human SK-MEL-28 cells at 1 uM after 12 hrs by confocal microscopy analysis. The class given is ADME, subcellular. As to conditions: sk-mel-28, 12 h.
Series [22] is described as follows: Fluorescence property of compound in EtOH assessed as quantum yield. The class given is physicochemical.
For series [23], the system named is HeLa. As to the kind of experiment: Potency index, ratio of temo-porfin EC50 to test compound EC50 for phototoxicity against human HeLa cells. Type of series: functional.
The nature of series [24]: Induction of singlet oxygen generation in EtOH assessed as singlet oxygen quantum yield. The class given is functional.
Series [25] can be described thus: Fluorescence property of compound in THF assessed as life time. The class given is physicochemical.
The nature of series [26]: Phototoxicity against human HeLa cells assessed as reduction in cell viability preincubated for 12 hrs followed by 15 mins of light irradiation and measured after 24 hrs by neutral red uptake assay. As to conditions: light or radiation study. Type of series: functional, cell-based.
A short description of series [27]: Absorption property of the compound in THF assessed as extinction coefficient. The class given is physicochemical.
Series [28] in a line: Fluorescence property of compound in acetone assessed as quantum yield. Type of series: physicochemical.

In the case of `CC1(C)CCC(C)(C)c2cc3c(cc21)C1=Nc2c4cc5c(cc4c4n2[B-]2(Cl)n6c(c7cc8c(cc7c6=N4)C(C)(C)CCC8(C)C)=NC3=[N+]12)C(C)(C)CCC5(C)C` (stereo unspecified), the Activity in [1] was 575 nm; in series [2], 0.65; in series [3], 0.18; in series [4], 2.04 nanoseconds; in series [5] it was 587 nm.
The term EC50 denotes the concentration that produces a half-maximal response. The logD is lipophilicity at a set pH, counting ionised and neutral species. The low end stands for a more hydrophilic compound, the high end for a more lipophilic compound. Consider `CCSc1ccc2c(c1)C1=Nc3c4ccc(SCC)cc4c4n3[B-]3(OCc5ccc6c(c5)OCCOCCOCCOCCOCCO6)n5c(c6cc(SCC)ccc6c5=N4)=NC2=[N+]13` (stereo unspecified), for which the “Ratio EC50” value in the series on HeLa [6] is 182; in the series with HeLa [17] it was 470; in the series on HeLa [23], 10. In addition, the EC50 was found to be 2.3 nM in series [7] and 4.4 nM in [26]. Moreover, the Activity in series [8] stood at 0.21; in series [12], 583 nm; in series [13] it was 578 nm; in [5], 594 nm; in series [18] it was 0.57; in series [22], 0.2. Besides, the Activity is 0.72 in series [24], 1.77 nanoseconds in [25] and 92080 M⁻¹ cm⁻¹ in series [27]. Further, the CC50 at 24 h in [9] is 5.25 µM; in series [14] it was 14.5 µM. Moreover, the log distribution coefficient (logD) at 5 min, 100 µM in series [10] came to 1.92. The “Selectivity Index” value came out at 6300 in series [11] and 1193 in series [19]. In addition, the result with SK-MEL-28 was Active. Besides, the Drug uptake is 2.66 nmol/mg in [15], 9.69 nmol/mg in series [16], “Active” in [20] and “Active” in series [21].
With `c1ccc(O[B-]23n4c5c6ccccc6c4N=c4c6ccccc6c(n42)=NC2=[N+]3C(=N5)c3ccccc32)cc1` (stereo unspecified), the Activity was 563 nm in series [13] and 0.18 in [28].
